Experimental data published in patent publication US20260184707A1, “PHARMACEUTICAL COMPOUNDS FOR THE TREATMENT OF COMPLEMENT MEDIATED DISORDERS” (ALEXION PHARMACEUTICALS, INC., priority 2022, published 2026).

Target: T1, Human complement C1s enzyme (Homo sapiens, UniProt P09871)
T1 construct: purified from human serum, Complement Technology, Inc; purchased Complement Technology, Inc; host or cells: human serum (plasma-derived native protein)
T1 sequence (P09871 438-688 limits assumed): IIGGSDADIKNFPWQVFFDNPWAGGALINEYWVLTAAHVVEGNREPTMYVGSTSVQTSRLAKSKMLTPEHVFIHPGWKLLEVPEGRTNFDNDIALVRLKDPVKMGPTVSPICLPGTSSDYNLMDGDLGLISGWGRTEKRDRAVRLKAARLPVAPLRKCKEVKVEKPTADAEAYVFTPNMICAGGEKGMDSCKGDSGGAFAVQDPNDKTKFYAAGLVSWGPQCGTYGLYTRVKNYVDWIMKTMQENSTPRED
T1 sequence (P09871 16-437 partner limits assumed): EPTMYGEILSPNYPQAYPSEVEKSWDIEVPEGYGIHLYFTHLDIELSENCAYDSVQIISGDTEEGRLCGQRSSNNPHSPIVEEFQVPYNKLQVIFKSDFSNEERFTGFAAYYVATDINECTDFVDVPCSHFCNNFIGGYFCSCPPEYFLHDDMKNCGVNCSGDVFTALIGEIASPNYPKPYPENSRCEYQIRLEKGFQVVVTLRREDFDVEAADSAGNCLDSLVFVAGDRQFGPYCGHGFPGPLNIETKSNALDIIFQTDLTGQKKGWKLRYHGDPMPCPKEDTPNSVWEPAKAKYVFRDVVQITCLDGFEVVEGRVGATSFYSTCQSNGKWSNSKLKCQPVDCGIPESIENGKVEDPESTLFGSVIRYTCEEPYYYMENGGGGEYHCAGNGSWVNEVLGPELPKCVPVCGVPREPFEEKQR
Experiment: Human C1s enzyme assay
Type: biochemical
Settings: human complement C1s enzyme 1.16 nM, substrate Z-L-Lys-SBzl, A405; read-out: IC50 (Stars)
Procedure, shortened: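 Thioesterase activity followed colorimetrically (DTNB, A405, 30-s reads) using 100 μM Z-L-Lys-SBzl substrate. Enzyme, human serum-derived C1s at 1.16 nM final, was incubated with test compound for 5 min, room temperature, pH 7.5 Tris buffer with 1 M NaCl. Rate-versus-concentration data fitted by nonlinear regression for IC50.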

Compound	IC50 [µM]
C[C@@H](Nc1cn(C)c(=O)n(CC(=O)NCc2cc3cnccc3[nH]2)c1=O)c1ccc2oc3ccccc3c2c1 [Compound 366, (R)—N-((1H-pyrrolo[3,2-c]pyridine-2-yl)methyl)-2-(5-((1-(dibenzo[b,d]furan-2-yl)ethyl)amino)-3-methyl-2,6-dioxo-3,6-dihydropyrimidin-1(2H)-yl)acetamide]	> 1
C[C@@H](Nc1cnc(N2CCCC2)n(CC(=O)NCc2cc3cnccc3[nH]2)c1=O)c1ccc2oc3ccccc3c2c1 [Compound 367, (R)—N-((1H-pyrrolo[3,2-c]pyridin-2-yl)methyl)-2-(5-((1-(dibenzo[b,d]furan-2-yl)ethyl)amino)-6-oxo-2-(pyrrolidin-1-yl)pyrimidin-1(6H)-yl)acetamide]	> 1
C[C@@H](Nc1cnc(N2CC(F)C2)n(CC(=O)NCc2cc3cnccc3[nH]2)c1=O)c1ccc2oc3ccccc3c2c1 [Compound 368, (R)-N-((1H-pyrrolo[3,2-c]pyridin-2-yl)methyl)-2-(5-((1-(dibenzo[b,d]furan-2-yl)ethyl)-amino)-2-(3-fluoroazetidin-1-yl)-6-oxopyrimidin-1(6H)-yl)-acetamide]	> 1
C[C@@H](Nc1cnc(N2CCC(O)C2)n(CC(=O)NCc2cc3cnccc3[nH]2)c1=O)c1ccc2oc3ccccc3c2c1 (stereo partly drawn) [Compound 369, N-((1H-pyrrolo[3,2-c]pyridin-2-yl)methyl)-2-(5-(((R)-1-(dibenzo[b,d]furan-2-yl)ethyl)-amino)-2-(3-hydroxypyrroli-din-1-yl)-6-oxopyrimidin-1(6H)-yl)acetamide]	0.1 to 1
C[C@@H](Nc1cnc(N2CCCC(O)C2)n(CC(=O)NCc2cc3cnccc3[nH]2)c1=O)c1ccc2oc3ccccc3c2c1 (stereo partly drawn) [Compound 370, N-((1H-pyrrolo[3,2-c]pyridin-2-yl)methyl)-2-(5-(((R)-1-(dibenzo[b,d]furan-2-yl)ethyl)-amino)-2-(3-hydroxypiperidin-1-yl)-6-oxopyrimidin-1(6H)-yl)acetamide]	0.1 to 1
C[C@@H](Nc1cnc(N2CC3CC3C2)n(CC(=O)NCc2cc3cnccc3[nH]2)c1=O)c1ccc2oc3ccccc3c2c1 (stereo partly drawn) [Compound 371, N-((1H-pyrrolo[3,2-c]pyridin-2-yl)methyl)-2-(2-(3-azabicyclo [3.1.0]hexan-3-yl)-5-(((R)-1-(dibenzo[b,d]furan-2-yl)ethyl)-amino)-6-oxopyrimidin-1(6H)-yl)acetamide]	> 1
C[C@@H](Nc1cnc(-c2ccc(C3(F)COC3)cc2)n(CC(=O)NCc2cc3cnccc3[nH]2)c1=O)c1ccc2oc3ccccc3c2c1 [Compound 372, (R)—N-((1H-pyrrolo[3,2-c]pyridine-2-yl)methyl)-2-(5-((1-(dibenzo[b,d]furan-2-yl)ethyl)amino)-2-(4-(3-fluorooxetan-3-yl)phenyl)-6-oxopyrimidin-1(6H)-yl)acetamide]	< 0.1
C[C@@H](Nc1cnc(N2CC3(CCC3)C2)n(CC(=O)NCc2cc3cnccc3[nH]2)c1=O)c1ccc2oc3ccccc3c2c1 [Compound 373, (R)-N-((1H-pyrrolo[3,2-c]pyridin-2-yl)methyl)-2-(5-((1-(dibenzo[b,d]furan-2-yl)ethyl)-amino)-6-oxo-2-(2-azaspiro [3.3]heptan-2-yl)pyrimidin-1(6H)-yl)acetamide]	> 1
C[C@@H](Nc1cnc(N2CC3(C2)CC(F)(F)C3)n(CC(=O)NCc2cc3cnccc3[nH]2)c1=O)c1ccc2oc3ccccc3c2c1 [Compound 374, (R)-N-((1H-pyrrolo[3,2-c]pyridin-2-yl)methyl)-2-(5-((1-(dibenzo[b,d]furan-2-yl)ethyl)-amino)-2-(6,6-difluoro-2-aza-spiro[3.3]heptan-2-yl)-6-oxo-pyrimidin-1(6H)-yl)acetamide]	> 1
C[C@@H](Nc1cnc(N2CCNCC2)n(CC(=O)NCc2cc3cnccc3[nH]2)c1=O)c1ccc2oc3ccccc3c2c1 [Compound 376, (R)—N-((1H-pyrrolo[3,2-c]pyridine-2-yl)methyl)-2-(5-((1-(dibenzo[b,d]furan-2-yl)ethyl)amino)-6-oxo-2-(piperazin-1-yl)pyrimidin-1(6H)-yl)acetamide]	< 0.1
C[C@@H](Nc1cnc(-c2ccc(O[C@@H]3CO[C@H]4[C@@H]3OC[C@H]4O)cc2)n(CC(=O)NCc2cc3cnccc3[nH]2)c1=O)c1ccc2oc3ccccc3c2c1 [Compound 377, N-((1H-pyrrolo[3,2-c]pyridine-2-yl)methyl)-2-(5-(((R)-1-(dibenzo[b,d]furan-2-yl)ethyl)amino)-2-(4-(((3R,3aR,6R,6aR)-6-hydroxyhexahydrofuro[3,2-b]furan-3-yl)oxy)phenyl)-6-oxopyrimidin-1(6H)-yl)acetamide]	< 0.1
Cc1ncc(N[C@H](C)c2ccc3oc4ccccc4c3c2)c(=O)n1CC(=O)NCc1cc2cnccc2[nH]1 [Compound 378, (R)-N-((1H-pyrrolo[3,2-c]pyridin-2-yl)methyl)-2-(5-((1-(dibenzo[b,d]furan-2-yl)ethyl)-amino)-2-methyl-6-oxopyrimi-din-1(6H)-yl)acetamide]	> 1
C[C@@H](Nc1cnc(N2CCC(F)(F)CC2)n(CC(=O)NCc2cc3cnccc3[nH]2)c1=O)c1ccc2oc3ccccc3c2c1 [Compound 379, (R)-N-((1H-pyrrolo[3,2-c]pyridin-2-yl)methyl)-2-(5-((1-(dibenzo[b,d]furan-2-yl)ethyl)-amino)-2-(4,4-difluoropiperi-din-1-yl)-6-oxopyrimidin-1(6H)-yl)acetamide]	> 1
C[C@@H](Nc1cnc(N2CCC(O)CC2)n(CC(=O)NCc2cc3cnccc3[nH]2)c1=O)c1ccc2oc3ccccc3c2c1 [Compound 380, (R)-N-((1H-pyrrolo[3,2-c]pyridin-2-yl)methyl)-2-(5-((1-(dibenzo[b,d]furan-2-yl)ethyl)-amino)-2-(4-hydroxypiperidin-1-yl)-6-oxopyrimidin-1(6H)-yl)acetamide]	0.1 to 1
CC1CCCN(c2ncc(N[C@H](C)c3ccc4oc5ccccc5c4c3)c(=O)n2CC(=O)NCc2cc3cnccc3[nH]2)C1 (stereo partly drawn) [Compound 381, N-((1H-pyrrolo[3,2-c]pyridin-2-yl)methyl)-2-(5-(((R)-1-(dibenzo[b,d]furan-2-yl)ethyl)-amino)-2-(3-methylpiperidin-1-yl)-6-oxopyrimidin-1(6H)-yl)acetamide]	> 1
C[C@@H](Nc1cnc(N2CCC3(CC2)OCCO3)n(CC(=O)NCc2cc3cnccc3[nH]2)c1=O)c1ccc2oc3ccccc3c2c1 [Compound 382, (R)-N-((1H-pyrrolo[3,2-c]pyridin-2-yl)methyl)-2-(5-((1-(dibenzo[b,d]furan-2-yl)ethyl)-amino)-6-oxo-2-(1,4-dioxa-8-azaspiro[4.5]decan-8-yl)pyr-imidin-1(6H)-yl)acetamide]	< 0.1
C[C@@H](Nc1cnc(N2CC3CCC2C3)n(CC(=O)NCc2cc3cnccc3[nH]2)c1=O)c1ccc2oc3ccccc3c2c1 (stereo partly drawn) [Compound 383, N-((1H-pyrrolo[3,2-c]pyridine-2-yl)methyl)-2-(2-(2-azabicyclo[2.2.1]heptan-2-yl)-5-(((R)-1-(dibenzo[b,d]furan-2-yl)ethyl)amino)-6-oxopyrimidin-1(6H)-yl)acetamide]	> 1
C[C@@H](Nc1cnc(N2CCSCC2)n(CC(=O)NCc2cc3cnccc3[nH]2)c1=O)c1ccc2oc3ccccc3c2c1 [Compound 384, (R)-N-((1H-pyrrolo[3,2-c]pyridin-2-yl)methyl)-2-(5-((1-(dibenzo[b,d]furan-2-yl)ethyl)-amino)-6-oxo-2-thiomorpho-linopyrimidin-1(6H)-yl)acet-amide]	0.1 to 1
C[C@@H](Nc1cnc(N2CCS(=O)(=O)CC2)n(CC(=O)NCc2cc3cnccc3[nH]2)c1=O)c1ccc2oc3ccccc3c2c1 [Compound 385, (R)-N-((1H-pyrrolo[3,2-c]pyridin-2-yl)methyl)-2-(5-((1-(dibenzo[b,d]furan-2-yl)ethyl)-amino)-2-(1,1-dioxidothio-morpholino)-6-oxopyrimidin-1(6H)-yl)acetamide]	> 1
C[C@@H](Nc1cnc(N2CC(O)C2)n(CC(=O)NCc2cc3cnccc3[nH]2)c1=O)c1ccc2oc3ccccc3c2c1 [Compound 386, (R)-N-((1H-pyrrolo[3,2-c]pyridin-2-yl)methyl)-2-(5-((1-(dibenzo[b,d]furan-2-yl)ethyl)-amino)-2-(3-hydroxyazetidin-1-yl)-6-oxopyrimidin-1(6H)-yl)acetamide]	> 1
C[C@@H](Nc1cnc(N2C[C@H]3C[C@@H](C2)C3)n(CC(=O)NCc2cc3cnccc3[nH]2)c1=O)c1ccc2oc3ccccc3c2c1 [Compound 387, N-((1H-pyrrolo[3,2-c]pyridin-2-yl)methyl)-2-(2-((1S,5S)-3-azabicyclo[3.1.1]heptan-3-yl)-5-(((R)-1-(dibenzo[b,d]furan-2-yl)ethyl)amino)-6-oxopyr-imidin-1(6H)-yl)acetamide]	0.1 to 1
